Values belong to the compound of their own block, whether it stands above or below them.
What was measured:
[1] = Emulsion formation and stability over time, optical microscopy observation on storage; format: physicochemical; details: cyclodextrin monomer 17 mg/ml in water + 10 mg Parsol MCX per ml, pulsed sonication 40 s, stored at 25° C. with tangential agitation
Description: The α-, β- or γ-cyclodextrin monomers are placed in solution in water at a concentration of 17 mg/ml. 10 mg of Parsol® MCX are added to 1 ml of the aqueous solution of α-, β- or γ-cyclodextrin thus prepared. The mixture is then subjected to pulsed sonication for 40 seconds in an ice-cold bath (0° C.). The resulting product is stored at 25° C. with tangential agitation.
The α-, β- or γ-cyclodextrin dimers/trimers are put into solution in water. 10 mg of Parsol® MCX are added to 1 ml of the aqueous solution of α-, β- or γ-cyclodextrin dimer/trimer thus prepared. The mixture is then subjected to pulsed sonication for 40 seconds in an ice-cold bath (0° C.). The resulting product is stored at 25° C. with tangential agitation.
The resulting emulsions are conditioned for storage at 25° C., with tangential agitation, at 37° C. or 4° C. for a varying period ranging from a few days up to a few months before use.
Emulsions (a) to (c) are formed by pulsed sonication for a period of 40 seconds and stored at 25° C.

[2] = Interfacial rheology, interfacial tension by the drop method (Tracker); format: physicochemical
Description: The interface (oil/aqueous solution of polymer) elastic behavior is measured from the variation in interfacial tension. The apparatus used for measuring the elastic properties is a Tracker®, manufactured by the company […] Concept. The interfacial tension is measured by the drop method. A deformation of the interfacial area by dilation or by contraction of the volume of the drop creates a variation in the interfacial concentration of the polymers adsorbed at the interface. The Tracker® records the response of the interfacial tension and subsequently establishes the relationship between the deformation of the interface and this response, which describes the rheological behavior of the interface. A deformation of the interfacial area is repeated over time by imposing a sinusoidal variation in the volume of the drop, and thus makes it possible to establish the viscoelastic characteristics of the interface. […] The drop is formed at the end of the capillary connected to a syringe, the plunger of which is controlled by a motor. The needle used has a 180° curve in order to have a rising drop, the density of the oils being in this case lower than that of the aqueous phase. The gauge of the needle is 18, which corresponds to an internal diameter of 0.84 mm and an external diameter of 1.27 mm. The needle is made of Teflon in order to avoid wetting of the drop on the walls of the needle. […]

outcome of attempt to prepare an emulsion [1]: formation of an insoluble precipitate
SMILES: OC[C@H]1O[C@@H]2O[C@H]3[C@H](O)[C@@H](O)[C@@H](O[C@H]4[C@H](O)[C@@H](O)[C@@H](O[C@H]5[C@H](O)[C@@H](O)[C@@H](O[C@H]6[C@H](O)[C@@H](O)[C@@H](O[C@H]7[C@H](O)[C@@H](O)[C@@H](O[C@H]1[C@H](O)[C@H]2O)O[C@@H]7CO)O[C@@H]6CO)O[C@@H]5CO)O[C@@H]4CO)O[C@@H]3CO [α-cyclodextrin monomers, α-cyclodextrin]
outcome of attempt to prepare an emulsion ([1]; listed as α-monomers): an insoluble precipitate is formed as early as the first day (day zero)

interfacial tension ([2]; oil drop in aqueous poly-β-CD solution): approximately 12 mN/m
SMILES: CC(C)=CCC/C(C)=C/CC/C(C)=C/CC/C=C(\C)CC/C=C(\C)CCC=C(C)C [squalene]

SMILES: OC[C@H]1O[C@@H]2O[C@H]3[C@H](O)[C@@H](O)[C@@H](O[C@H]4[C@H](O)[C@@H](O)[C@@H](O[C@H]5[C@H](O)[C@@H](O)[C@@H](O[C@H]6[C@H](O)[C@@H](O)[C@@H](O[C@H]7[C@H](O)[C@@H](O)[C@@H](O[C@H]8[C@H](O)[C@@H](O)[C@@H](O[C@H]9[C@H](O)[C@@H](O)[C@@H](O[C@H]1[C@H](O)[C@H]2O)O[C@@H]9CO)O[C@@H]8CO)O[C@@H]7CO)O[C@@H]6CO)O[C@@H]5CO)O[C@@H]4CO)O[C@@H]3CO [γ-cyclodextrins, γ-cyclodextrin]
outcome of attempt to prepare an emulsion [1]: formation of an emulsion (for two days) and then a precipitation
outcome of attempt to prepare an emulsion ([1]; listed as γ-monomer): initially forms an emulsion and then precipitates rapidly (two days)

outcome of attempt to prepare an emulsion [1]: formation of an insoluble precipitate
SMILES: OC[C@H]1O[C@@H]2O[C@H]3[C@H](O)[C@@H](O)[C@@H](O[C@H]4[C@H](O)[C@@H](O)[C@@H](O[C@H]5[C@H](O)[C@@H](O)[C@@H](O[C@H]6[C@H](O)[C@@H](O)[C@@H](O[C@H]7[C@H](O)[C@@H](O)[C@@H](O[C@H]8[C@H](O)[C@@H](O)[C@@H](O[C@H]1[C@H](O)[C@H]2O)O[C@@H]8CO)O[C@@H]7CO)O[C@@H]6CO)O[C@@H]5CO)O[C@@H]4CO)O[C@@H]3CO [β-cyclodextrin monomers, β-cyclodextrin]
outcome of attempt to prepare an emulsion ([1]; listed as β-monomers): an insoluble precipitate is formed as early as the first day (day zero)
behaviour of the oil/aqueous solution interface ([2]; squalene (borage, ginger) drop in aqueous cyclodextrin solution): formation of a rigid membrane at the surface of the squalene drop

From patent US8741347B2, “Method for forming cyclodextrin polymer and lipophilic compound emulsions, resulting emulsions, and compositions including said emulsions” (Centre National de la Recherche Scientifique—CNRS, priority 2009, dated 2014)
